# Assay results as given in ChEMBL document CHEMBL1201862, “PubChem BioAssay data set” (2004).
# Calls of active or inactive are those of the source.
# Experiments:
# [1] = target: 26S proteasome non-ATPase regulatory subunit 14 (Homo sapiens, UniProt O00487); assay: inhibition of proteasome subunit RPN11 – biochemical, fluorescence polarization, uHTS hits, confirmation (AID 602368); format: functional
# [2] = target: 72 kDa type IV collagenase (Homo sapiens, UniProt P08253); assay: Dose Response validation of uHTS RPN11 inhibitor hits using a MMP-2 Fluorescence assay.; format: functional
# Prothrombin = Prothrombin (Bos taurus, UniProt P00735); assay: thrombin inhibition, dose response, biochemical, fluorescence polarization, uHTS hits (AID 602369); format: functional
# [3] = target: T1, Heat shock factor protein 1 (Mus musculus, UniProt P38532); assay: inhibition of MG132-induced HSE-luciferase signal, confirmation, cell-based, NIH3T3, luminescence, dose retest (AID 2382); format: functional;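 further: NIH3T3 fibroblasts with HSF1-driven luciferase reporter stressed by proteasome inhibitor MG132; luminescence from HSF1-driven luciferase expression after 8 hours of MG132 stress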
# T1 sequence (P38532 whole entry): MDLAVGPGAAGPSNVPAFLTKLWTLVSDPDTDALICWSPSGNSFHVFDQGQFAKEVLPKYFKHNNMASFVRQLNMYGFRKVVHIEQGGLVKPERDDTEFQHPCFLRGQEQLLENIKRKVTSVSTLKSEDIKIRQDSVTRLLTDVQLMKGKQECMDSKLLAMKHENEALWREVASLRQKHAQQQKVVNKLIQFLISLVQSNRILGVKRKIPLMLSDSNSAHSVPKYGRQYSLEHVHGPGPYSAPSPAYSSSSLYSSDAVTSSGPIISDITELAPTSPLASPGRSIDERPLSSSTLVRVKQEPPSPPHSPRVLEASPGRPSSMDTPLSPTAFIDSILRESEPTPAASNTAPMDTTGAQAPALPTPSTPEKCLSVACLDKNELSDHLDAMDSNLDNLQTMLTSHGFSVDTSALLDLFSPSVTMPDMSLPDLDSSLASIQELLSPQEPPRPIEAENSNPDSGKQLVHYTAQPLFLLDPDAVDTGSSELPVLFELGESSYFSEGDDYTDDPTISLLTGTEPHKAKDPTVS
# [4] = cytotoxicity in HEK-293T cells, dose response, cytotoxicity control for TCR NF-kB inhibitor project, luminescence, T-cell screen hits (AID 489026); format: functional, cell-based;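 further: cells exposed to compound about 14 hours before the viability readout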
# [5] = target: T2, Microphthalmia-associated transcription factor (Homo sapiens, UniProt O75030); assay: TRPM1 promoter luciferase signal decrease, dose response, MITF inhibitor project, cell-based, SK-MEL-5, cherry-picked, set 3 (AID 493073); format: functional
# T2 sequence (O75030 whole entry): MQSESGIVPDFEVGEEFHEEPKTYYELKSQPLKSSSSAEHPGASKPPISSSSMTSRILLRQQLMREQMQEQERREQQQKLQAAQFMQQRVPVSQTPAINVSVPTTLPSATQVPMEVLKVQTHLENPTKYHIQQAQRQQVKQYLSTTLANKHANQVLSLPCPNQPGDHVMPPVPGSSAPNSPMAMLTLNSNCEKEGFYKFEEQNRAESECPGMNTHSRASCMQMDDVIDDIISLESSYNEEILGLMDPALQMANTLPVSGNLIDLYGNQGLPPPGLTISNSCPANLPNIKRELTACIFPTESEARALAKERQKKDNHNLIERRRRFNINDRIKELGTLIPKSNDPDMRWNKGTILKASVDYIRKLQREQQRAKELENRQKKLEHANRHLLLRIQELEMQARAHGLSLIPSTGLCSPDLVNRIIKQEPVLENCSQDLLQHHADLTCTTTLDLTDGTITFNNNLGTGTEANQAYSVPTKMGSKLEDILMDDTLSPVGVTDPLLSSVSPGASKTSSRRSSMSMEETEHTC
# [6] = target: Luciferin 4-monooxygenase (Photinus pyralis, UniProt P08659); assay: firefly luciferase enzyme inhibitors, dose response, biochemical, dry powder samples, plate reader (AID 588451)
# H4 [7] = assay: inhibitors of control reporter signal in H4 cells – cell-based, plate reader, dry powder samples, counter-screen for prion reporter project, dose response (AID 540255); format: functional; conditions: Homo sapiens
# H4 [8] = assay: Amyloid Precursor 5' UTR neuroblastoma cell reporter line Measured in Cell-Based System Using Plate Reader - 2078-04_Inhibitor_Dose_DryPowder_Activity. [Related pubchem assays (depositor defined):AID488894]; format: functional; conditions: Homo sapiens
# H4 [9] = assay: Inhibitors of Prion Protein 5' UTR mRNA Measured in Cell-Based System Using Plate Reader - 2078-01_Inhibitor_Dose_DryPowder_Activity. [Related pubchem assays (depositor defined):AID488894]; format: functional; conditions: Homo sapiens
# [10] = Shn3 3'UTR reporter inhibitors, dose response, cell-based, Clone20 osteoblasts, firefly luciferase, cherry-picked (AID 624132); format: functional;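 further: firefly luciferase luminescence from reporter carrying the Shn3 3'UTR in osteoblasts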
# CHO-K1 = assay: Counterscreen for antagonists of the orexin 1 receptor (OX1R; HCRTR1): Homogeneous time resolved fluorescence (HTRF)-based cell-based dose response assay to identify antagonists of the parental CHO-K1 cell line. [Related pubchem assays (depositor defined):AID434989, AID435008, AID463079, AID485270, AID492963, AID492964, AID492965, AID493232, AID504699, AID504701]; format: functional; conditions: Cricetulus griseus;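 further: potency for inhibition of ATP-stimulated IP1 production as antagonists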
# [11] = Counterscreen for antagonists of the orexin 1 receptor (OX1R; HCRTR1): Fluorescence-based cell-based high throughput dose response assay to identify antagonists of the parental CHO cell line. [Related pubchem assays (depositor defined):AID434989, AID435008, AID463079, AID485270, AID492963, AID492964, AID492965, AID493232, AID504699, AID504701]; format: functional
# [12] = target: T3, Orexin/Hypocretin receptor type 1 (Homo sapiens, UniProt O43613); assay: Homogeneous Time Resolved Fluorescence (HTRF)-based cell-based high throughput dose response assay for antagonists of the orexin 1 receptor (OX1R; HCRTR1). [Related pubchem assays (depositor defined):AID434989, AID435008, AID463079, AID485270, AID492963, AID492964, AID492965, AID493232, AID504717, AID504718]; format: functional
# [13] = target: T3, Orexin/Hypocretin receptor type 1; assay: Fluorescence-based cell-based high throughput dose response assay for antagonists of the orexin 1 receptor (OX1R; HCRTR1). [Related pubchem assays (depositor defined):AID434989, AID435008, AID463079, AID485270, AID492963, AID492964, AID492965, AID493232, AID504717, AID504718]; format: functional
# Orexin receptor type 2 [14] = target: T4, Orexin receptor type 2 (Homo sapiens, UniProt O43614); assay: Counterscreen assay for antagonists of the orexin 1 receptor (OX1R; HCRTR1): Fluorescence-based cell-based dose response assay for antagonists of the orexin 2 receptor (OX2R; HCRTR2), run by assay provider.; format: functional
# Orexin receptor type 2 [15] = target: T4, Orexin receptor type 2; assay: Counterscreen assay for antagonists of the orexin 1 receptor (OX1R; HCRTR1): Homogeneous Time Resolved Fluorescence (HTRF)-based cell-based dose response assay for antagonists of the orexin 2 receptor (OX2R; HCRTR2), run by assay provider.; format: functional
# [16] = target: Serine/threonine-protein kinase pim-1 (Homo sapiens, UniProt P11309); format: functional
# [17] = target: Serine/threonine-protein kinase pim-3 (Homo sapiens, UniProt Q86V86); format: functional;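 further: value obtained as one member of a broad kinase panel profiling effort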
# [18] = target: Serine/threonine-protein kinase 17A (Homo sapiens, UniProt Q9UEE5); format: functional
# Aurora kinase B = Aurora kinase B (Homo sapiens, UniProt Q96GD4); format: functional
# [19] = target: DNA dC->dU-editing enzyme APOBEC-3G (Homo sapiens, UniProt Q9HC16); assay: APOBEC3G deaminase inhibitors, SAR follow-up, biochemical, fluorescence, single-stranded DNA substrate (AID 602136); format: functional; conditions: read-out: IC50_Mean
# [20] = target: DNA dC->dU-editing enzyme APOBEC-3A (Homo sapiens, UniProt P31941); assay: SAR analysis of small molecule inhibitors of APOBEC3A DNA Deaminase via a fluorescence-based single-stranded DNA deaminase assay.; format: functional; conditions: read-out: IC50_Mean
# [21] = target: T5, Neuropeptides B/W receptor type 1 (Homo sapiens, UniProt P48145); assay: GPR7 antagonist potency, late-stage follow-up, cell-based, fluorescence, dose response, set 5 (AID 588566); format: functional
# T5 sequence (P48145 whole entry): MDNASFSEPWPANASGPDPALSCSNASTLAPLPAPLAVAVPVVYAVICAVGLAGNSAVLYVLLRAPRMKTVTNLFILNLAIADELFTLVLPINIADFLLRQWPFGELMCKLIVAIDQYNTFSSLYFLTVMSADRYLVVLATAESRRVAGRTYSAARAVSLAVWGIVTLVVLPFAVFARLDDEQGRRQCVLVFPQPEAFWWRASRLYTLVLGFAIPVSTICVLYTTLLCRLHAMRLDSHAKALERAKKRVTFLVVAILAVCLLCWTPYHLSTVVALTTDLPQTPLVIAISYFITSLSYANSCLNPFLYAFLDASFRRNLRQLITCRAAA
# [22] = target: Melanin-concentrating hormone receptor 1 (Homo sapiens, UniProt Q99705); assay: Late-stage fluorescence-based counterscreen for antagonists of the G-protein coupled receptor 7 (GPR7): cell-based dose response assay to identify antagonists of the melanin-concentrating hormone receptor 1 (MCHR1) Set 5.; format: functional
# [23] = target: Cell division cycle 7-related protein kinase (Homo sapiens, UniProt O00311); format: functional;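 further: value obtained from a kinome-wide kinase panel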
# [24] = target: Cyclin-dependent kinase 19 (Homo sapiens, UniProt Q9BWU1); assay: Navigating the Kinome. Panel member name: CDC2L6; format: functional
# Aspartyl aminopeptidase = Aspartyl aminopeptidase (Plasmodium falciparum 3D7, UniProt Q8I2J3)
# Procathepsin L = Procathepsin L (Homo sapiens, UniProt P07711)
# [25] = target: T6, High affinity choline transporter 1 (Homo sapiens, UniProt Q9GZV3); assay: CHT inhibitors, dose response, cell-based, 5-point CRC, membrane potential dye (AID 504840); format: functional
# T6 sequence (Q9GZV3 whole entry): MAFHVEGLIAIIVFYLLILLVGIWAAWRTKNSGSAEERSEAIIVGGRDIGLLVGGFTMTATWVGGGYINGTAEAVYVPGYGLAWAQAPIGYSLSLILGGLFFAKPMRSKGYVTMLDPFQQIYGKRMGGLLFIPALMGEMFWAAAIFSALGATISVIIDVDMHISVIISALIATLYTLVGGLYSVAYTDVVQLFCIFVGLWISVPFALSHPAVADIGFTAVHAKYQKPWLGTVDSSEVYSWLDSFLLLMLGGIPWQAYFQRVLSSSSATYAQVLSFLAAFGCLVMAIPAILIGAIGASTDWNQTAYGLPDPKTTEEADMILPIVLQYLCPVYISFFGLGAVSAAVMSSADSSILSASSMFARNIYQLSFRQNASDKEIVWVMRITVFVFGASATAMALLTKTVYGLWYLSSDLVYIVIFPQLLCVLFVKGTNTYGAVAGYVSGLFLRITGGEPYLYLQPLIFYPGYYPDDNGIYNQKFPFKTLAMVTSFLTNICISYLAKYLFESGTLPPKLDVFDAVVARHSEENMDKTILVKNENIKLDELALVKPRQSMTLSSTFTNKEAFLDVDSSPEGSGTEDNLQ
# [26] = target: T6, High affinity choline transporter 1; assay: CHT inhibitors, dose response, cell-based, 10-point CRC, membrane potential dye (AID 588401); format: functional;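 further: membrane potential dye fluorescence of choline-evoked depolarization via CHT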
# P388/ADR = assay: cells; format: functional; conditions: Mus musculus
# SN12K1 = assay: cells; format: functional; conditions: Homo sapiens
# P388 = assay: cells; format: functional; conditions: Mus musculus
# T3 sequence (O43613 whole entry): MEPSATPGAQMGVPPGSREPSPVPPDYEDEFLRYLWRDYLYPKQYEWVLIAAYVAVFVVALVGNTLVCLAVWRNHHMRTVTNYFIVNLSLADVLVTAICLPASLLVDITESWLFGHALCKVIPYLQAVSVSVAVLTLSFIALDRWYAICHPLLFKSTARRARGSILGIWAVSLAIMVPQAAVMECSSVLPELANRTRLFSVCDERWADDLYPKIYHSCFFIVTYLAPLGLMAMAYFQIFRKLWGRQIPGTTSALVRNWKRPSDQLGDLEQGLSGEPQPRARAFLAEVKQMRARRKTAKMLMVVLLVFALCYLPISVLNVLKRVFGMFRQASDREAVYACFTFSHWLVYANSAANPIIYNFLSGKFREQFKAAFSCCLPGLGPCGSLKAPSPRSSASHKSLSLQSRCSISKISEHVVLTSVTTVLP
# T4 sequence (O43614 whole entry): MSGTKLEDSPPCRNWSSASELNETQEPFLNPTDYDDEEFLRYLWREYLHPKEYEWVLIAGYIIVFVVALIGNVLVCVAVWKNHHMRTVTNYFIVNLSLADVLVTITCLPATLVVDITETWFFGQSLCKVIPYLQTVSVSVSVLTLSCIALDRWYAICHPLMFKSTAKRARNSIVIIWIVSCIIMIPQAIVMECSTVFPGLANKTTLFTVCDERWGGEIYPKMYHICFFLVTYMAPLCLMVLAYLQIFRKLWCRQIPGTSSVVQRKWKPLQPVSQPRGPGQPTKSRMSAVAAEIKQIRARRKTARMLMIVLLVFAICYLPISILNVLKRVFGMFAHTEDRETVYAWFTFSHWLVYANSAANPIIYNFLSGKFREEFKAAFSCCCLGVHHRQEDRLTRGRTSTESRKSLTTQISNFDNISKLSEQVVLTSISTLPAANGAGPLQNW
# Sequence of Serine/threonine-protein kinase 17A (Q9UEE5 whole entry): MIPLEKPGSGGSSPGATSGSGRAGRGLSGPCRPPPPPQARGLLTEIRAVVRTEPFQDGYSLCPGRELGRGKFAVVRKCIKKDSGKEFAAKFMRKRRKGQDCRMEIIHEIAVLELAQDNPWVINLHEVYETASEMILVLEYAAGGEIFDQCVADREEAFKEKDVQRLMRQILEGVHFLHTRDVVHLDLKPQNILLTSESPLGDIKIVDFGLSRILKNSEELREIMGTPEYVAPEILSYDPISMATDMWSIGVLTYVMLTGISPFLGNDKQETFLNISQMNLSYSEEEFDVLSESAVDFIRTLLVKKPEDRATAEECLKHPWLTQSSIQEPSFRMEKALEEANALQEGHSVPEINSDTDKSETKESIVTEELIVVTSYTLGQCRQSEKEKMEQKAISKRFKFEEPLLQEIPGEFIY
# Sequence of Procathepsin L (P07711 whole entry): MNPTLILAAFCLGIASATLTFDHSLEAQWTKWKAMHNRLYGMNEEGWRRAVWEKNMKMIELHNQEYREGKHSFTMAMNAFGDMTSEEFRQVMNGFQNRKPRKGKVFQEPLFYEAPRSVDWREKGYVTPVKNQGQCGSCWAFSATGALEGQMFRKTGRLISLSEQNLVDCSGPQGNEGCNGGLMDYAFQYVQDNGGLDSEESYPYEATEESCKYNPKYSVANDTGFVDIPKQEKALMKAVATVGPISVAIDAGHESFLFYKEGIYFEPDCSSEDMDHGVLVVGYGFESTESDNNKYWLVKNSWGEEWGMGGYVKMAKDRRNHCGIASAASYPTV
# Sequence of Aurora kinase B (Q96GD4 whole entry): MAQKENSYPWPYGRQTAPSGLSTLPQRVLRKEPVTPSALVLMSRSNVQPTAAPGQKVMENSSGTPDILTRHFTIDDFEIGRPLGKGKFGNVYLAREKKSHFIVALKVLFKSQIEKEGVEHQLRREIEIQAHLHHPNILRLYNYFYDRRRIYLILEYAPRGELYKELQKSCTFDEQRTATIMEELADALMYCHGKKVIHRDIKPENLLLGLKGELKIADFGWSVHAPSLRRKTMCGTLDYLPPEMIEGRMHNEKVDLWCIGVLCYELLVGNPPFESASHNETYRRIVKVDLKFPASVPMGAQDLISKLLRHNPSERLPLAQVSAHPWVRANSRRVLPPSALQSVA
# Sequence of Serine/threonine-protein kinase pim-1 (P11309 whole entry): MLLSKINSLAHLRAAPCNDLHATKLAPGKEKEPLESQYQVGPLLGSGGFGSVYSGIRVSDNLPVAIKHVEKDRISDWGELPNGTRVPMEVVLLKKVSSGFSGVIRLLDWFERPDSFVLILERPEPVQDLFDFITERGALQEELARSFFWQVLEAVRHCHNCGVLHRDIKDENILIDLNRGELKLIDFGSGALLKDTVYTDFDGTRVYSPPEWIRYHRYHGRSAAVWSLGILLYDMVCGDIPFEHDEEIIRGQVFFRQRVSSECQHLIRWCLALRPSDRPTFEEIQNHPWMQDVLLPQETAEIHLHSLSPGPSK
# Sequence of DNA dC->dU-editing enzyme APOBEC-3G (Q9HC16 whole entry): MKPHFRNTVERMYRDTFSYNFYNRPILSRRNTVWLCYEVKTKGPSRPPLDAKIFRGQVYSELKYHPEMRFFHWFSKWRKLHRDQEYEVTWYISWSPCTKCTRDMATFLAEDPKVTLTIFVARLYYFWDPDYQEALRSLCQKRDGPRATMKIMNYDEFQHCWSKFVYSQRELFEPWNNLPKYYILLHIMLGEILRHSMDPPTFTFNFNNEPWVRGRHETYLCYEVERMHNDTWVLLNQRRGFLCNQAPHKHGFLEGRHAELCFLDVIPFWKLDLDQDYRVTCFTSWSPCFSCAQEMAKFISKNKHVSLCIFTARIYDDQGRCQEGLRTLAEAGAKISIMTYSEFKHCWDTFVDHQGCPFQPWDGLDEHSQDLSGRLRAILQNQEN
# Sequence of Melanin-concentrating hormone receptor 1 (Q99705 whole entry): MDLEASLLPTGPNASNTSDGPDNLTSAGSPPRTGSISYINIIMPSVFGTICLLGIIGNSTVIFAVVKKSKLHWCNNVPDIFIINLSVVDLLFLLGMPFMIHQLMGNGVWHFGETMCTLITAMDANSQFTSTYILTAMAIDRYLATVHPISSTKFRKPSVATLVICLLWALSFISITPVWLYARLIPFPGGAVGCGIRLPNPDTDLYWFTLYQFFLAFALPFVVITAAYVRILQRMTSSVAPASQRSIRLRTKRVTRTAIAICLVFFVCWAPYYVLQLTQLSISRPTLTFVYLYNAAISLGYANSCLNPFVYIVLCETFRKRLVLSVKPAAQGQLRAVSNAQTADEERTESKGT
# Sequence of DNA dC->dU-editing enzyme APOBEC-3A (P31941 whole entry): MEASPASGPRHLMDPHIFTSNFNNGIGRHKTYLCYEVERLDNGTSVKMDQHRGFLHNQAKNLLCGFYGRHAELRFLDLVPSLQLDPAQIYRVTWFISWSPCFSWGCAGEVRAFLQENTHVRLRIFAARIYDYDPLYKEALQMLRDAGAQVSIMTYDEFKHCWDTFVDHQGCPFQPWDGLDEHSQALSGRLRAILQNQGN
# Sequence of Cell division cycle 7-related protein kinase (O00311 whole entry): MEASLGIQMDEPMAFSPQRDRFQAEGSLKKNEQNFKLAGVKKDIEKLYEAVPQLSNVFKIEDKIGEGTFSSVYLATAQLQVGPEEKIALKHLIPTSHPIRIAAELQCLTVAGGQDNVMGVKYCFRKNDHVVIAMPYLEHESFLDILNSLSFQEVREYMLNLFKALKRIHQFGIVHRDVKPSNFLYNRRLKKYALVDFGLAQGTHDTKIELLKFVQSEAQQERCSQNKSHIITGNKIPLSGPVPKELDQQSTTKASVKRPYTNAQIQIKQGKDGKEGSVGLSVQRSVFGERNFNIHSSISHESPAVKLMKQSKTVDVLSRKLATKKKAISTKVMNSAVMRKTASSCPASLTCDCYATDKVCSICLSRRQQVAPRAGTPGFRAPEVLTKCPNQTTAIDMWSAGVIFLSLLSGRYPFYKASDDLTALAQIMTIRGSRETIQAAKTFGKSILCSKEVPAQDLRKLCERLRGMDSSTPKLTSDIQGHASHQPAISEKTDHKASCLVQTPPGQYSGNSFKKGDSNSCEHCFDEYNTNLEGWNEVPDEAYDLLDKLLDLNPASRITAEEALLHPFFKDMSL
# Sequence of Cyclin-dependent kinase 19 (Q9BWU1 whole entry): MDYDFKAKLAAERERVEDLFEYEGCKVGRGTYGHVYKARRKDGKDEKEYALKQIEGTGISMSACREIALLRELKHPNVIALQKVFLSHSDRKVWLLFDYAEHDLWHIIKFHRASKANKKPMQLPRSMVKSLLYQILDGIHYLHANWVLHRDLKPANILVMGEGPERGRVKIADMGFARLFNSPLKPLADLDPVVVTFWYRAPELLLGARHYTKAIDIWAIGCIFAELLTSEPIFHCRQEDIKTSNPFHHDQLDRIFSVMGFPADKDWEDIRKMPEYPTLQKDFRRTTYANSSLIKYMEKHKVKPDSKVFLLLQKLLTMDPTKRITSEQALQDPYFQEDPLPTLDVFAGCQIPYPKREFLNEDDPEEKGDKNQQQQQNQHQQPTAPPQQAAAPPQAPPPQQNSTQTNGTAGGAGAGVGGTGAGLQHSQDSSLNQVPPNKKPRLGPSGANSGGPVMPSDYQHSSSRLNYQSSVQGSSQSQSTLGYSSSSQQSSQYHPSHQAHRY
# Sequence of 26S proteasome non-ATPase regulatory subunit 14 (O00487 whole entry): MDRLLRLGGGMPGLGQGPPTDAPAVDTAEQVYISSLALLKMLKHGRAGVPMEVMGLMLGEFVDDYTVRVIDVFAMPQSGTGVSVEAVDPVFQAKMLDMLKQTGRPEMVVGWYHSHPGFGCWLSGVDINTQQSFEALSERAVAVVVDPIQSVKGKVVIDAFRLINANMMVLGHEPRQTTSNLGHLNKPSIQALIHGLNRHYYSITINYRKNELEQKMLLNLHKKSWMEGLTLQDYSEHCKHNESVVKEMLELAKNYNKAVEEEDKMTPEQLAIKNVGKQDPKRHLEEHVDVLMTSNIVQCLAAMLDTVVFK
structure (smiles),measurement,setting,value
Cc1ccc(-n2c(-c3ccco3)nc3nc4ccccc4nc32)cc1,IC50,[1],24.1 µM (active)
same,IC50,[2],> 100 µM (inactive)
same,IC50,Prothrombin,69 µM (active)
Cc1ccc(NC(=O)c2cc3ccccc3oc2=O)cc1S(=O)(=O)N(C)C,EC50,[3],< 0.16 µM (active)
same,IC50,[4],> 80 µM (inactive)
same,AC50,[5],0.03 µM (active)
same,AC50,[6],0.0893 µM (active)
same,AC50,H4 [7],< 0.02 µM (active)
same,AC50,H4 [8],0.00125 µM (active)
same,AC50,H4 [9],0.011 µM (active)
same,AC50,[10],1.29 µM (active)
O=C(c1cccc(N2CCNC2=O)c1)N1CCCC(Nc2cccc(F)c2)C1 (centres undefined),IC50,CHO-K1,> 66.2 µM (inactive)
same,IC50,[11],> 49.7 µM (inactive)
same,IC50,[12],0.922 µM (active)
same,IC50,[13],9.83 µM (active)
same,IC50,Orexin receptor type 2 [14],> 88.8 µM (inactive)
same,IC50,Orexin receptor type 2 [15],> 50 µM (inactive)
NC(=O)c1ccc2c(ccn2-c2cccc(Cl)c2)c1,Ki,[16],3.98 µM (active)
same,Ki,[17],3.98 µM (active)
CN(C)CC(=O)Nc1n[nH]c2cc(-c3cn(Cc4ccccc4)nn3)ccc12,Ki,[18],1 µM (active)
same,Ki,Aurora kinase B,3.16 µM (active)
Clc1cnc2[nH]c(SCc3nnc(-c4cccs4)o3)nc2c1,IC50,[19],20.6 µM (inactive)
same,IC50,[20],> 99 µM (inactive)
COc1ccc(Sc2cnn(Cc3cccc4ccccc34)c(=O)c2Cl)cc1,IC50,[21],1.19 µM (active)
same,IC50,[22],18.7 µM (inactive)
O=c1cc(-c2ccncc2)[nH]n1-c1ccc([N+](=O)[O-])cc1,Ki,[23],0.501 µM (active)
same,Ki,[24],> 100 µM (inactive)
O=CN/C=C/c1cc(O)ccc1O [ERBSTATIN],IC50,Aspartyl aminopeptidase,3.72 µM (active)
same,IC50,Procathepsin L,> 59.6 µM (not active)
same,IC50,[25],4.17 µM (active)
same,IC50,[26],0.751 µM (active)
same,GI50,P388/ADR,2.02 µM (inactive)
same,GI50,SN12K1,16.2 µM (inactive)
same,GI50,P388,2.1 µM (inactive)
